Data published in ChEMBL document CHEMBL3046802, “7-Piperazinylquinolones with methylene-bridged nitrofuran scaffold as new antibacterial agents” (2013).
≈ marks a conversion by molar mass, not a printed value.

What was measured:
Type in all cases: functional
[1] = system: Staphylococcus epidermidis; test: Antibacterial activity against Staphylococcus epidermidis ATCC 12228 after 18 hrs by agar dilution method; conditions: ATCC 12228, 18 h
Staphylococcus aureus = test: Antibacterial activity against Staphylococcus aureus ATCC 6538 after 18 hrs by agar dilution method; conditions: ATCC 6538, 18 h
Pseudomonas aeruginosa = test: Antibacterial activity against Pseudomonas aeruginosa ATCC 9027 after 18 hrs by agar dilution method; conditions: ATCC 9027, 18 h
Escherichia coli = test: Antibacterial activity against Escherichia coli ATCC 8739 after 18 hrs by agar dilution method; conditions: ATCC 8739, 18 h
Klebsiella pneumoniae = test: Antibacterial activity against Klebsiella pneumoniae ATCC 10031 after 18 hrs by agar dilution method; conditions: ATCC 10031, 18 h
Bacillus subtilis = test: Antibacterial activity against Bacillus subtilis ATCC 6633 after 18 hrs by agar dilution method; conditions: ATCC 6633, 18 h

SMILES	MIC [1] [µg/mL]	MIC (Staphylococcus aureus) [µg/mL]	MIC (Pseudomonas aeruginosa) [µg/mL]	MIC (Escherichia coli) [µg/mL]	MIC (Klebsiella pneumoniae) [µg/mL]	MIC (Bacillus subtilis) [µg/mL]
CCn1cc(C(=O)O)c(=O)c2cc(F)c(N3CCN(Cc4ccc([N+](=O)[O-])o4)CC3)cc21	3.13 (≈ 7.04 µM)	1.56 (≈ 3.51 µM)	25 (≈ 56.3 µM)	6.25 (≈ 14.1 µM)	6.25 (≈ 14.1 µM)	12.5 (≈ 28.1 µM)
O=C(O)c1cn(C2CC2)c2cc(N3CCN(Cc4ccc([N+](=O)[O-])o4)CC3)c(F)cc2c1=O	1.56 (≈ 3.42 µM)	0.39 (≈ 0.854 µM)	3.13 (≈ 6.86 µM)	1.56 (≈ 3.42 µM)	0.39 (≈ 0.854 µM)	0.78 (≈ 1.71 µM)
COc1c(N2CCN(Cc3ccc([N+](=O)[O-])o3)C(C)C2)c(F)cc2c(=O)c(C(=O)O)cn(C3CC3)c12 (stereo unspecified)	1.56 (≈ 3.12 µM)	0.78 (≈ 1.56 µM)	6.25 (≈ 12.5 µM)	3.13 (≈ 6.25 µM)	1.56 (≈ 3.12 µM)	3.13 (≈ 6.25 µM)
CCn1cc(C(=O)O)c(=O)c2cc(F)c(N3CCN(Cc4ccc([N+](=O)[O-])o4)CC3)nc21	3.13 (≈ 7.03 µM)	0.39 (≈ 0.876 µM)	12.5 (≈ 28.1 µM)	6.25 (≈ 14 µM)	3.13 (≈ 7.03 µM)	6.25 (≈ 14 µM)
C[C@H]1COc2c(N3CCN(Cc4ccc([N+](=O)[O-])o4)CC3)c(F)cc3c(=O)c(C(=O)O)cn1c23	0.39 (≈ 0.826 µM)	1.56 (≈ 3.3 µM)	12.5 (≈ 26.5 µM)	0.78 (≈ 1.65 µM)	1.56 (≈ 3.3 µM)	0.78 (≈ 1.65 µM)
O=C(O)c1cn(C2CC2)c2cc(N3CCN(Cc4ccc([N+](=O)[O-])cc4)CC3)c(F)cc2c1=O	3.13 (≈ 6.71 µM)	3.13 (≈ 6.71 µM)	50 (≈ 107 µM)	3.13 (≈ 6.71 µM)	12.5 (≈ 26.8 µM)	3.13 (≈ 6.71 µM)
CCn1cc(C(=O)O)c(=O)c2cc(F)c(N3CCN(Cc4ccc([N+](=O)[O-])o4)C(C)C3)c(F)c21 (racemic)	3.13 (≈ 6.57 µM)	1.56 (≈ 3.27 µM)	25 (≈ 52.5 µM)	0.39 (≈ 0.819 µM)	6.25 (≈ 13.1 µM)	0.097 (≈ 0.204 µM)
O=C(O)c1cn(C2CC2)c2cc(N3CCNCC3)c(F)cc2c1=O [CIPROFLOXACIN]	0.195 (≈ 0.589 µM)	0.195 (≈ 0.589 µM)	0.39 (≈ 1.18 µM)	0.097 (≈ 0.293 µM)	0.049 (≈ 0.148 µM)	0.195 (≈ 0.589 µM)
CCn1cc(C(=O)O)c(=O)c2cc(F)c(N3CCNCC3)nc21 [ENOXACIN]	0.78 (≈ 2.44 µM)	0.39 (≈ 1.22 µM)	1.56 (≈ 4.87 µM)	0.39 (≈ 1.22 µM)	0.78 (≈ 2.44 µM)	0.195 (≈ 0.609 µM)
COc1c(N2CCNC(C)C2)c(F)cc2c(=O)c(C(=O)O)cn(C3CC3)c12 (stereo unspecified) [GATIFLOXACIN]	0.78 (≈ 2.08 µM)	0.78 (≈ 2.08 µM)	0.78 (≈ 2.08 µM)	1.56 (≈ 4.16 µM)	0.195 (≈ 0.519 µM)	0.78 (≈ 2.08 µM)
C[C@H]1COc2c(N3CCN(C)CC3)c(F)cc3c(=O)c(C(=O)O)cn1c23.C[C@H]1COc2c(N3CCN(C)CC3)c(F)cc3c(=O)c(C(=O)O)cn1c23.O [LEVOFLOXACIN]	0.39	0.39	3.13		0.39	0.78
C[C@H]1COc2c(N3CCNCC3)c(F)cc3c(=O)c(C(=O)O)cn1c23 [N-DESMETHYL LEVOFLOXACIN]	1.56 (≈ 4.49 µM)	3.13 (≈ 9.01 µM)	> 6.25		0.39 (≈ 1.12 µM)	1.56 (≈ 4.49 µM)
CCn1cc(C(=O)O)c(=O)c2cc(F)c(N3CCNCC3)cc21 [NORFLOXACIN]	0.39 (≈ 1.22 µM)	0.39 (≈ 1.22 µM)	1.56 (≈ 4.89 µM)	0.195 (≈ 0.611 µM)	0.39 (≈ 1.22 µM)	0.195 (≈ 0.611 µM)
